Where a name gives a salt, the structure may show the parent alone. Peptide text beside a SMILES is read from it.
What was measured:
male germ cells [1] = format: in vivo; details: single IP; HN, HN-S7A, HN-C8P, HN-L12A 40 mg/Kg BW; HNG, HNG-F6A 5 mg/Kg BW; 24 hours
Description: For the HN analog experiments, male mice were divided into seven groups (n=4-5 per group) and received one of the following treatments and sacrificed after 24 hours: 1) vehicle (control); 2) a single intra-peritoneal (IP) injection of HN peptide [HN, 40 mg/Kg body weight (BW)]; 3) a single IP injection of CP (CP, 200 mg/Kg BW); 4) IP injection of CP and HN (CP+HN); 5) a single IP injection of each HN analog (HNG 5 mg/Kg BW, HNG-F6A 5 mg/Kg BW, HN-S7A 40 mg/Kg BW, HN-C8P 40 mg/Kg BW, or HN-L12A 40 mg/Kg BW); 6) IP injection of CP and each HN analog (CP+HNG, HNG-F6A, HN-S7A, HN-C8P, or HN-L12A); and 7) IP injection of CP+HN+HN analog (HN-S7A, HN-C8P, or HN-L12A; to assess whether the analogs has enhancing or inhibitory effect on HN).
To facilitate testicular fixation by using a whole-body perfusion technique, all animals were injected with heparin (130 IU/100 g BW, IP) 15 min before a lethal injection of sodium pentobarbital (200 mg/kg BW, IP) (Lue Y H, et al., 1999). One testis was removed and weighed after perfusion with saline. Portions of testicular parenchyma were snap frozen in liquid nitrogen, and stored at −80 C for Western blotting. The other testis was fixed by vascular perfusion with Bouin's solution, and processed with routine paraffin embedding for in situ detection of apoptosis.
Detection of apoptotic cells was performed in Bouin's'-fixed, paraffin-embedded testicular sections by the terminal deoxynucleotidyl transferase (TdT)-mediated deoxy-UTP nick end labeling (TUNEL) technique (Sinha Hikim A P, et al., 1997) using an ApopTag-peroxidase kit (Chemicon International, Inc., Temecula, Calif.). Enumeration of the Sertoli cell nuclei with distinct nucleoli and apoptotic germ cell population was quantified at stages I-IV (early stages), stages VII-VIII (middle stages) and stages XI-XII (late stages) of the seminiferous epithelial cycle using an Olympus BH-2 microscope (New Hyde Park, N.Y.). Stages were identified according to the criteria proposed by Russell et al for paraffin sections (Russell L, 1977). The rate of germ cell apoptosis (apoptotic index, AI) was expressed as the number of apoptotic germ cells per Sertoli cells (Sinha Hikim A P, et al., 1997).

[2] = test system: germ cells in seminiferous tubules; test: DOX-induced germ cell apoptosis in mouse seminiferous tubule cultures ex vivo (TUNEL); format: cell-based; details: 12 hours
Description: A total of 15 young adult (12-13 week-old) mice were used for these ex vivo studies. The animals were sacrificed with a 5% pentobarbital (200 mg/Kg) IP injection. Testes were dissected and after removing the tunica albuginea, seminiferous tubules isolated from testes were cut into small segments under a dissecting microscope and light and dark segments were separated by dissection. Ten to twelve segments were placed (2 mm in length) in each well on a six well plate with 2 ml serum free Ham F-10 culture medium (GIBCO, Life Technologies, Thermo Fisher Scientific Corp., Carlsbad, Calif.) with the following treatments: control (Con, n=10), heat (43° C., 15 minutes, used as a positive control, n=10); HN 10 μg/mL (n=9); DOX 10 mcM (Dox10, n=10); and DOX 10 mcM+Humanin 10 μg/mL (Dox10+HN, n=10). For these experiments, n represents the total number of times the treatment was repeated using different animals. After 12 hours of incubation at 34° C. the seminiferous tubules from each treatment group were used to make “squashed” seminiferous tubule samples on a slide for TUNEL (TdT-mediated dUTP nick-end labeling) assay to detect germ cell apoptosis (Erkkila, et al., 1997; Toppari & Parvinen, 1985). To quantify the rate of germ cell apoptosis under a light microscope at 400× magnification, a square grid fitted within the eyepiece provided a reference area of 62,500 μm^2. The TUNEL positive apoptotic germ cells within the frame of grid were counted in 4 segments of seminiferous tubules in each group. The incidence of germ cell apoptosis was expressed as the number of apoptotic germ cells per mm^2.
A total of 15 mice were used for ex vivo studies. The animals were sacrificed and seminiferous tubules isolated from testes were cut into small segments under a dissecting microscope to identify light (early stages I-IV and late stages XI-XII) of the seminiferous epithelium) and dark (middle stages VII-VIII) segments. […] To quantify the rate of germ cell apoptosis, the squashed segments of seminiferous tubules were examined with an American Optical Microscope (Scientific Instruments, Buffalo, N.Y.) with a 40× objective and a 10× eyepiece lens. […] The TUNEL positive apoptotic germ cells within the frame of grid were counted in 4 segments of seminiferous tubules in each group. The incidence of germ cell apoptosis was expressed as the number of apoptotic germ cells per mm^2.

male germ cells [3] = details: testicular cross sections, 24 hours; HN 40 mg/Kg or CP 200 mg/Kg single IP
Description: Young adult mice (12-13 weeks) were randomly divided into 4 groups with 4 or 5 mice per group and received an IP injection: control (Con) (saline), HN (40 mg/Kg BW), CP (200 mg/Kg BW), and the combination of CP+HN. These experiments were repeated four times. In the CP+HN group, mice received an injection of HN followed by an injection of CP about 15 minutes later. Twenty-four hours after injections animals were sacrificed using 5% pentobarbital (200 mg/kg BW) IP injection. Blood was collected and one testis was removed, weighed and frozen in liquid nitrogen. The mouse was next perfused with saline and then subsequently perfuse-fixed with Bouin's solution as previously described and apoptosis was assessed by TUNEL assay (Lue, et al., 2009).
For detection of apoptosis in testicular sections, the paraffin embedded testis tissue was cut into 5 micron sections and stained with the TdT-mediated dUTP nick-end labeling assay (TUNEL Apoptosis Detection Kit, Millipore, Billerica, Mass.) to detect apoptosis of germ cells in the testis (Lue, et al., 2009). Testicular sections assayed by TUNEL were examined under a light microscope and the apoptotic germ cells were blindly and manually counted. The seminiferous tubules in the testis section under the microscope were grouped as stages IX-IV (early-late stages of spermatogenesis) and V-VIII (middle stages of spermatogenesis). Germ cell apoptosis was quantified as the number of seminiferous tubules containing apoptotic spermatogonia, spermatoctyes, round spermatids and spermatozoa per 100 seminiferous tubules (Drumond, et al., 2011).

testosterone = details: with or without EDS pre-treatment

For `CC[C@H](C)[C@H](NC(=O)[C@H](CCC(=O)O)NC(=O)CNC(=O)[C@@H](NC(=O)[C@H](CC(C)C)NC(=O)[C@H](CC(C)C)NC(=O)[C@H](CC(C)C)NC(=O)[C@H](CC(C)C)NC(=O)[C@H](CS)NC(=O)[C@H](CO)NC(=O)[C@H](C)NC(=O)CNC(=O)[C@H](CCCNC(=N)N)NC(=O)[C@@H]1CCCN1C(=O)[C@H](C)NC(=O)[C@@H](N)CCSC)[C@@H](C)O)C(=O)N[C@@H](CC(=O)O)C(=O)N[C@@H](CC(C)C)C(=O)N1CCC[C@H]1C(=O)N[C@H](C(=O)N[C@@H](CCCCN)C(=O)N[C@@H](CCCNC(=N)N)C(=O)N[C@@H](CCCNC(=N)N)C(=O)N[C@@H](C)C(=O)O)C(C)C` [HNG-F6A] (H-MAPRGASCLLLLTGEIDLPVKRRA-OH; N-terminus and C-terminus assumed), the “spontaneous germ cell apoptosis, peptide alone” value (shortened to “spontaneous germ cell apoptosis”) (male germ cells [1]) was “did not change”.
In the case of `CC[C@H](C)[C@H](NC(=O)[C@H](CCC(=O)O)NC(=O)[C@H](CO)NC(=O)[C@@H](NC(=O)[C@H](C)NC(=O)[C@H](CC(C)C)NC(=O)[C@H](CC(C)C)NC(=O)[C@H](CC(C)C)NC(=O)[C@H](CS)NC(=O)[C@H](CO)NC(=O)[C@H](Cc1ccccc1)NC(=O)CNC(=O)[C@H](CCCNC(=N)N)NC(=O)[C@@H]1CCCN1C(=O)[C@H](C)NC(=O)[C@@H](N)CCSC)[C@@H](C)O)C(=O)N[C@@H](CC(=O)O)C(=O)N[C@@H](CC(C)C)C(=O)N1CCC[C@H]1C(=O)N[C@H](C(=O)N[C@@H](CCCCN)C(=O)N[C@@H](CCCNC(=N)N)C(=O)N[C@@H](CCCNC(=N)N)C(=O)N[C@@H](C)C(=O)O)C(C)C` [HN-L12A] (H-MAPRGFSCLLLATSEIDLPVKRRA-OH; N-terminus and C-terminus assumed), the “spontaneous germ cell apoptosis” value (male germ cells [1]) is reported as “did not change”.
In the case of `COc1cccc2c1C(=O)c1c(O)c3c(c(O)c1C2=O)C[C@@](O)(C(=O)CO)C[C@@H]3O[C@H]1C[C@H](N)[C@H](O)[C@H](C)O1` [DOX, doxorubicin hydrochloride], the “germ cell apoptosis compared with control” value ([2]; HN 10 μg/mL alone or DOX 10 μM (high dose) alone, hydrochloride) is reported as “significantly higher number of apoptotic germ cells”, the “germ cell apoptosis compared with control” value ([2]; HN 10 μg/mL alone or DOX 10 μM (high dose) alone, listed as doxorubicin, hydrochloride) is reported as “significantly increased apoptosis” and the “germ cell apoptosis compared with control” value ([2]; doxorubicin 1 μM (low dose)) is reported as “increased apoptosis but did not reach statistical difference”.
In the case of `CC[C@H](C)[C@H](NC(=O)[C@H](CCC(=O)O)NC(=O)[C@H](CO)NC(=O)[C@@H](NC(=O)[C@H](CC(C)C)NC(=O)[C@H](CC(C)C)NC(=O)[C@H](CC(C)C)NC(=O)[C@H](CC(C)C)NC(=O)[C@@H]1CCCN1C(=O)[C@H](CO)NC(=O)[C@H](Cc1ccccc1)NC(=O)CNC(=O)[C@H](CCCNC(=N)N)NC(=O)[C@@H]1CCCN1C(=O)[C@H](C)NC(=O)[C@@H](N)CCSC)[C@@H](C)O)C(=O)N[C@@H](CC(=O)O)C(=O)N[C@@H](CC(C)C)C(=O)N1CCC[C@H]1C(=O)N[C@H](C(=O)N[C@@H](CCCCN)C(=O)N[C@@H](CCCNC(=N)N)C(=O)N[C@@H](CCCNC(=N)N)C(=O)N[C@@H](C)C(=O)O)C(C)C` [HN-C8P] (H-MAPRGFSPLLLLTSEIDLPVKRRA-OH; N-terminus and C-terminus assumed), the “spontaneous germ cell apoptosis” value (male germ cells [1]) is reported as “did not change”.
`CC[C@H](C)[C@H](NC(=O)[C@H](CCC(=O)O)NC(=O)[C@H](CO)NC(=O)[C@@H](NC(=O)[C@H](CC(C)C)NC(=O)[C@H](CC(C)C)NC(=O)[C@H](CC(C)C)NC(=O)[C@H](CC(C)C)NC(=O)[C@H](CS)NC(=O)[C@H](CO)NC(=O)[C@H](Cc1ccccc1)NC(=O)CNC(=O)[C@H](CCCNC(=N)N)NC(=O)[C@@H]1CCCN1C(=O)[C@H](C)NC(=O)[C@@H](N)CCSC)[C@@H](C)O)C(=O)N[C@@H](CC(=O)O)C(=O)N[C@@H](CC(C)C)C(=O)N1CCC[C@H]1C(=O)N[C@H](C(=O)N[C@@H](CCCCN)C(=O)N[C@@H](CCCNC(=N)N)C(=O)N[C@@H](CCCNC(=N)N)C(=O)N[C@@H](C)C(=O)O)C(C)C` [HN] was tested, and the “germ cell apoptosis compared with control” value ([2]; HN 10 μg/mL alone or DOX 10 μM (high dose) alone) was “no significant effect”, the “germ cell apoptosis compared to control” value (male germ cells [3]) was “no significant effect” and the “spontaneous germ cell apoptosis” value (male germ cells [1]) was “did not change”. The intratesticular testosterone levels (testosterone) was “no significant effects” and the serum testosterone levels (testosterone) was “no significant effects”.
In the case of `CC[C@H](C)[C@H](NC(=O)[C@H](CCC(=O)O)NC(=O)[C@H](CO)NC(=O)[C@@H](NC(=O)[C@H](CC(C)C)NC(=O)[C@H](CC(C)C)NC(=O)[C@H](CC(C)C)NC(=O)[C@H](CC(C)C)NC(=O)[C@H](CS)NC(=O)[C@H](C)NC(=O)[C@H](Cc1ccccc1)NC(=O)CNC(=O)[C@H](CCCNC(=N)N)NC(=O)[C@@H]1CCCN1C(=O)[C@H](C)NC(=O)[C@@H](N)CCSC)[C@@H](C)O)C(=O)N[C@@H](CC(=O)O)C(=O)N[C@@H](CC(C)C)C(=O)N1CCC[C@H]1C(=O)N[C@H](C(=O)N[C@@H](CCCCN)C(=O)N[C@@H](CCCNC(=N)N)C(=O)N[C@@H](CCCNC(=N)N)C(=O)N[C@@H](C)C(=O)O)C(C)C` [HN-S7A] (H-MAPRGFACLLLLTSEIDLPVKRRA-OH; N-terminus and C-terminus assumed), the “spontaneous germ cell apoptosis” value (male germ cells [1]) is reported as “did not change”.
